Measured values: US20240199613A1 (TAKEDA PHARMACEUTICAL COMPANY LIMITED, priority 2021, published 2024)
pEC50: −log10 of the molar value. Where a name gives a salt, the structure may show the parent alone.

Experiments:
[1] = molecular target: human activated kallikrein enzyme (Homo sapiens, UniProt P03952); test: Inhibition of activated plasma kallikrein, fluorogenic peptide substrate (PFR-AMC) assay, 500 pM enzyme format; assay type: biochemical; conditions: 500 pM activated kallikrein, 300 uM PFR-AMC, 30 min preincubation, 10 min reaction, room temperature; read-out: Primary Dose Response Assay: Average EC50
Sequence of human activated kallikrein enzyme (P03952 391-638 limits assumed): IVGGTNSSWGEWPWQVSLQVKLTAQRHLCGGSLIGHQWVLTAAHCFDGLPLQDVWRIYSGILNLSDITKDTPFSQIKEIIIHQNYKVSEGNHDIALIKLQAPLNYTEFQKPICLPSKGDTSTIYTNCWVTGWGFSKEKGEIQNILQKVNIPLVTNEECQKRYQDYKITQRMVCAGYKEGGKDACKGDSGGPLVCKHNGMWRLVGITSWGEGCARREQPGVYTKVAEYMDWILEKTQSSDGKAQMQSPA
Sequence of human activated kallikrein enzyme (P03952 20-390 partner limits assumed): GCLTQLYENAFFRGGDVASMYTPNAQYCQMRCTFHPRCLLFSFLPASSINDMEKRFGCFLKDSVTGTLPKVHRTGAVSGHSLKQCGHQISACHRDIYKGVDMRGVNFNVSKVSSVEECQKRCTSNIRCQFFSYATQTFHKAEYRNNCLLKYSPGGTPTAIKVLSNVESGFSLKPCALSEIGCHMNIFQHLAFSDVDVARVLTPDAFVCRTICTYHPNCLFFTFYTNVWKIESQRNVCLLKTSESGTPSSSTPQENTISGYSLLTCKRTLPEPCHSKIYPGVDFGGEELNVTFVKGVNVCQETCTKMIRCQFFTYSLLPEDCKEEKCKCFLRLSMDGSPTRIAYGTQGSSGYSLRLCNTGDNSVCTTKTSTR
Experimental: Compounds were evaluated for inhibition of the human activated kallikrein enzyme in two formats of an assay employing a fluorogenic peptide substrate. In one assay format, the concentrations of reagents were as follows: 20 mM Tris pH 7.5, 1 mM EDTA, 150 mM sodium chloride, 0.1% PEG-400, 0.1% Triton X-100, 500 pM activated kallikrein enzyme, 300 uM Pro-Phe-Arg-7-amido-4-methylcoumarin (PFR-AMC) substrate. Prior to reaction initiation with substrate, enzyme and inhibitors were preincubated for 30 min at room temperature. After initiation with substrate, reactions were incubated for 10 min at room temperature and fluorescence emission at 460 nm from 380 nm excitation measured with a microplate reader. In another assay format, the concentrations of reagents were as follows: 20 mM Tris pH 7.5, 1 mM EDTA, 150 mM sodium chloride, 0.1% PEG-400, 0.1% Triton X-100, 5 pM activated kallikrein enzyme, 300 uM PFR-AMC substrate. Prior to reaction initiation with substrate, enzyme and inhibitors were preincubated for 30 min at room temperature. After initiation with substrate, reactions were incubated for 18 hr at room temperature and fluorescence emission at 460 nm from 380 nm excitation measured with a microplate reader.
Table 6 provides the results of the assay in the format with 500 pM activated kallikrein assay.

plasma kallikrein = molecular target: T1, plasma kallikrein (Homo sapiens, UniProt P03952); test: Neat human plasma assay: contact pathway-activated (FXIIa) plasma, PFR-AMC substrate; assay type: biochemical; conditions: citrated human plasma (78% final), 10 nM human FXIIa, 100 μM PFR-AMC, room temperature
T1 construct: from tissue; host or cells: sodium citrate collected human plasma (78% final)
T1 sequence (P03952 391-638 limits assumed): as the sequence (P03952 391-638 limits assumed) above
T1 sequence (P03952 20-390 partner limits assumed): as the sequence (P03952 20-390 partner limits assumed) above
Experimental: To analyze inhibition of plasma kallikrein in an ex vivo setting, the potency of compounds was measure in contact pathway-activated plasma assays. In a fluorogenic peptide substrate assay, test compounds dissolved in DMSO were added to sodium citrate collected human or rat plasma in a 96-well microplate. Alternatively, citrated plasma was collected from rats administered the compounds orally or by IV. 10 nM of human FXIIa (Enzyme Research Laboratories) diluted in pKal buffer (20 mM Tris-HCl, pH 7.5, 150 mM NaCl, 1 mM EDTA, 0.1% PEG-8000, and 0.1% Triton X-100) was added to the plasma, followed by the 100 μM of the profluorescent, synthetic plasma kallikrein substrate PFR-AMC (also diluted in pKal buffer). Final plasma concentration in the reaction was 78%. Fluorescence was immediately monitored by excitation/emission wavelengths of 360 nm/480 nm respectively over a period of 5 minutes in a microplate reader. The resulting linear increase in fluorescence emission (reflecting pKal proteolysis of PFR-AMC substrate) was fit to extract a proteolytic rate (fluorescent units over time), and this rate was subsequently plotted against compound inhibitor concentration. Resulting plots were fit to a standard 4-parameter IC50/IC90 equation to determine min/max values, IC50/90, and slope. All experimental steps were performed at room temperature.

| Compound | pEC50 [1] | IC90 (plasma kallikrein) [nM] |
| --- | --- | --- |
| Cc1ccnc([C@H]2C[C@@H]2C2=CS(=O)(=O)c3ccc(NCc4cn5cc(C6CC6)cc(N6CC(=O)N(C)C6=O)c5n4)cc3N2)n1 (racemic) [Example 61, rac-1-(6-cyclopropyl-2-(((3-((1S*,2S*)-2-(4-methylpyrimidin-2-yl)cyclopropyl)-1,1-dioxido-4H-benzo[b][1,4]thiazin-6-yl)amino)methyl)imidazo[1,2-a]pyridin-8-yl)-3-methylimidazolidine-2,4-dione] | ≥ 9.00 | 400 to 1500 |
| Cc1ccnc([C@H]2C[C@@H]2C2=NS(=O)(=O)c3ccc(N(C)Cc4cn5cc(C6CC6)ccc5n4)cc3N2)n1 (racemic) [Example 80, rac-6-(((6-cyclopropylimidazo[1,2-a]pyridin-2-yl)methyl)(methyl)amino)-3-((1S*,2S*)-2-(4-methylpyrimidin-2-yl)cyclopropyl)-4H-benzo[e][1,2,4]thiadiazine 1,1-dioxide] | ≥ 9.00 | 1500 to 10000 |
| Cc1ccnc([C@H]2C[C@@H]2c2ccc3ccc(NCc4cn5cc(C6CC6)cc(N6CC(=O)N(C7COC7)C6=O)c5n4)cc3n2)n1 (racemic) [Example 78, rac-1-(6-cyclopropyl-2-(((2-((1S*,2S*)-2-(4-methylpyrimidin-2-yl)cyclopropyl)quinolin-7-yl)amino)methyl)imidazo[1,2-a]pyridin-8-yl)-3-(oxetan-3-yl)imidazolidine-2,4-dione] | ≥ 9.00 | 1500 to 10000 |
| Cc1ccnc([C@H]2C[C@@H]2c2cc(=O)c3cnc(NCc4cn5cc(C6CC6)cc(N6CC(=O)N(C)C6=O)c5n4)cc3[nH]2)n1 (racemic) [Example 10, rac-1-(6-cyclopropyl-2-(((2-((1S*,2S*)-2-(4-methylpyrimidin-2-yl)cyclopropyl)-4-oxo-1,4-dihydro-1,6-naphthyridin-7-yl)amino)methyl)imidazo[1,2-a]pyridin-8-yl)-3-methylimidazolidine-2,4-dione] | ≥ 9.00 | ≤ 400 |
| COc1cc([C@H]2C[C@@H]2c2nccc(C)n2)nc2cc(N3C[C@@H](O)C[C@@H]3c3cn4cc(C5CC5)cc(N5CC(=O)N(C)C5=O)c4n3)ccc12 (relative stereo) [Example 67, rac-1-(6-cyclopropyl-2-((2R,4S)-4-hydroxy-1-(4-methoxy-2-((1S*,2S*)-2-(4-methylpyrimidin-2-yl)cyclopropyl)quinolin-7-yl)pyrrolidin-2-yl)imidazo[1,2-a]pyridin-8-yl)-3-methylimidazolidine-2,4-dione] | 8.00 to 9.00 | 400 to 1500 |
| Cc1ccnc([C@H]2C[C@@H]2c2cc(NCC(C)(C)O)c3ccc(OCc4cn5cc(C6CC6)cc(N6CC(=O)N(C)C6=O)c5n4)cc3n2)n1 [Example 97, 1-(6-cyclopropyl-2-(((4-((2-hydroxy-2-methylpropyl)amino)-2-((1S,2S)-2-(4-methylpyrimidin-2-yl)cyclopropyl)quinolin-7-yl)oxy)methyl)imidazo[1,2-a]pyridin-8-yl)-3-methylimidazolidine-2,4-dione] | ≥ 9.00 | ≤ 400 |
| Cc1ccnc([C@H]2C[C@@H]2C2=CS(=O)(=O)c3cnc(NCc4cn5cc(C6CC6)cc(N6CC(=O)N(C)C6=O)c5n4)cc3N2)n1 (racemic) [Example 79, rac-1-(6-cyclopropyl-2-(((2-((1S*,2S*)-2-(4-methylpyrimidin-2-yl)cyclopropyl)-4,4-dioxido-1H-pyrido[3,4-b][1,4]thiazin-7-yl)amino)methyl)imidazo[1,2-a]pyridin-8-yl)-3-methylimidazolidine-2,4-dione] | ≥ 9.00 | ≤ 400 |
| Cc1ccnc([C@H]2C[C@@H]2c2cc(=O)c3ccc(NCc4cn5cc(C6CC6)cc(N6CC(=O)N(C)C6=O)c5n4)cc3[nH]2)n1 (racemic) [Example 11, rac-1-(6-cyclopropyl-2-(((2-((1S*,2S*)-2-(4-methylpyrimidin-2-yl)cyclopropyl)-4-oxo-1,4-dihydroquinolin-7-yl)amino)methyl)imidazo[1,2-a]pyridin-8-yl)-3-methylimidazolidine-2,4-dione] | ≥ 9.00 | 400 to 1500 |
| Cc1ccnc([C@H]2C[C@@H]2c2ccc3ccc(NCc4cn5cc(C6CC6)cc(N6CC(=O)N(C)C6=O)c5n4)cc3n2)n1 (racemic) [Example 57, rac-1-(6-cyclopropyl-2-(((2-((1S*,2S*)-2-(4-methylpyrimidin-2-yl)cyclopropyl)quinolin-7-yl)amino)methyl)imidazo[1,2-a]pyridin-8-yl)-3-methylimidazolidine-2,4-dione] | ≥ 9.00 | 1500 to 10000 |
| Cc1ccnc([C@H]2C[C@@H]2c2ccc3cnc(NCc4cn5cc(C6CC6)cc(N6CC(=O)N(C)C6=O)c5n4)cc3n2)n1 (racemic) [Example 15, rac-1-(6-cyclopropyl-2-(((2-((1S*,2S*)-2-(4-methylpyrimidin-2-yl)cyclopropyl)-1,6-naphthyridin-7-yl)amino)methyl)imidazo[1,2-a]pyridin-8-yl)-3-methylimidazolidine-2,4-dione formic acid salt] | 8.00 to 9.00 | 1500 to 10000 |
| COc1cc([C@H]2C[C@@H]2c2nccc(C)n2)nc2cc(N3C[C@@H](O)C[C@@H]3c3cn4cc(C5CC5)ccc4n3)ccc12 (relative stereo) [Example 53, (3S,5R)-5-(6-cyclopropylimidazo[1,2-a]pyridin-2-yl)-1-(4-methoxy-2-(rac-(1S*,2S*)-2-(4-methylpyrimidin-2-yl)cyclopropyl)quinolin-7-yl)pyrrolidin-3-ol] | 8.00 to 9.00 | – |
| O=c1nc([C@H]2C[C@@H]2c2cccc(Cl)c2)[nH]c2cc(NCc3cn4cc(C5CC5)ccc4n3)ccc12 [Example 50, 2-((1S,2S)-2-(3-chlorophenyl)cyclopropyl)-7-(((6-cyclopropylimidazo[1,2-a]pyridin-2-yl)methyl)amino)quinazolin-4 (1H)-one] | 7.00 to 8.00 | – |
| Cc1ccnc([C@H]2C[C@@H]2c2cnc3ccc(NCc4cn5cc(C6CC6)cc(N6CC(=O)N(C)C6=O)c5n4)cc3n2)n1 (racemic) [Example 62, rac-1-(6-cyclopropyl-2-(((3-((1S*,2S*)-2-(4-methylpyrimidin-2-yl)cyclopropyl)quinoxalin-6-yl)amino)methyl)imidazo[1,2-a]pyridin-8-yl)-3-methylimidazolidine-2,4-dione] | 5.19 to 7.00 | – |
| Cc1ccnc([C@H]2C[C@@H]2c2ccc3ccc(NCc4cn5cc(C6CC6)cc(N6C(=O)N(C)C(=O)C6C6(O)COC6)c5n4)cc3n2)n1 (relative stereo) [Example 90, rac-1-(6-cyclopropyl-2-(((2-((1S*,2S*)-2-(4-methylpyrimidin-2-yl)cyclopropyl)quinolin-7-yl)amino)methyl)imidazo[1,2-a]pyridin-8-yl)-5-(3-hydroxyoxetan-3-yl)-3-methylimidazolidine-2,4-dione] | 8.00 to 9.00 | – |
| O=c1[nH]c([C@H]2C[C@@H]2c2cccc(Cl)c2)nc2cc(NCc3cn4cc(C5CC5)ccc4n3)ncc12 [Example 2, 2-((1S,2S)-2-(3-chlorophenyl)cyclopropyl)-7-(((6-cyclopropylimidazo[1,2-a]pyridin-2-yl)methyl)amino)pyrido[4,3-d]pyrimidin-4 (3H)-one] | 7.00 to 8.00 | – |
| COCc1cc([C@H]2C[C@@H]2c2nccc(C)n2)nc2cc(NCc3cn4cc(C5CC5)cc(N5CC(=O)N(C)C5=O)c4n3)ccc12 (racemic) [Example 76, rac-1-(6-cyclopropyl-2-(((4-(methoxymethyl)-2-((1S*,2S*)-2-(4-methylpyrimidin-2-yl)cyclopropyl)quinolin-7-yl)amino)methyl)imidazo[1,2-a]pyridin-8-yl)-3-methylimidazolidine-2,4-dione] | ≥ 9.00 | – |
